Among the data in paper PMC4380987 (Protein Science : A Publication of the Protein Society, 2014) are IC50 values, retold here.

The target in this experiment is Edmanase (engineered cruzain) (Trypanosoma cruzi, UniProt P25779, C147G/G187S/A260C/L282Y). In kind it is biochemical.

Compound `CC(=O)c1nc(Nc2ccccc2)sc1C` [1-(2-anilino-5-methyl-1,3-thiazol-4-yl)-ethanone] displayed an IC50 of 1140 µM.
